Source: patent publication US20060116427A1, “Adapalene polymorphic forms” (priority 2004, published 2006)

Tests used:
[1] = Particle size (mean diameter D[4,3]) by laser light scattering, Malvern Mastersizer MS1; type: physicochemical; settings: product as obtained, not micronised
Method: According to present invention, when a particles sample is stated to have mean diameter, referred to as D[4,3], higher than X μm, this means that the mean volume of the particles constituting the sample is higher than the volume of a spherical particle with diameter X.
The particle sizes, i.e. mean diameter values D[4,3], were determined with the known technique of laser light scattering using a Malvern Mastersizer MS1 instrumentation under the following operative conditions: • 300RF mm lens with laser beam length of 2.4 mm; • 100 mg sample dispersed in 100 ml of isopar and 0.5 ml of a 2% solution of lecithin in isopar, with 3 min presonication and 2500 rpm stirring rate.

[2] = Stability of the solid form at room temperature; type: physicochemical

mean D[4,3] diameter of particles ([1]; listed as Adapalene Amorphous Form)	stability of the polymorphic form [2]	mean D[4,3] diameter of particles ([1]; listed as Adapalene Crystalline Form α)	mean D[4,3] diameter of particles ([1]; listed as adapalene crystalline Form a)	SMILES
approx. 15 μm	–	–	–	COc1ccc(-c2ccc3cc(C(=O)O)ccc3c2)cc1C12CC3CC(CC(C3)C1)C2 [adapalene amorphous Form, 6-[3-(1-adamantyl)-4-methoxyphenyl]-2-naphthoic acid]
–	stable at room temperature	approx. 15 μm	about 15 μm	COc1ccc(-c2ccc3cc(C(=O)O)ccc3c2)cc1C12CC3CC(CC(C3)C1)C2 [adapalene crystalline Form α, 6-[3-(1-adamantyl)-4-methoxyphenyl]-2-naphthoic acid]
